{"source": "ChEMBL document CHEMBL4808209", "about": "(J Med Chem, 2021)", "key": {"[1]": {"target": "D(4) dopamine receptor (Homo sapiens, UniProt P21917)", "test": "Inhibition of human dopamine D4.4 receptor at 0.1 to 1 uM", "conditions": "dose 0.1-1 µM; call rule not given here"}, "[2]": {"target": "Muscarinic acetylcholine receptor M5 (Homo sapiens, UniProt P08912)", "sequence (P08912 whole entry)": "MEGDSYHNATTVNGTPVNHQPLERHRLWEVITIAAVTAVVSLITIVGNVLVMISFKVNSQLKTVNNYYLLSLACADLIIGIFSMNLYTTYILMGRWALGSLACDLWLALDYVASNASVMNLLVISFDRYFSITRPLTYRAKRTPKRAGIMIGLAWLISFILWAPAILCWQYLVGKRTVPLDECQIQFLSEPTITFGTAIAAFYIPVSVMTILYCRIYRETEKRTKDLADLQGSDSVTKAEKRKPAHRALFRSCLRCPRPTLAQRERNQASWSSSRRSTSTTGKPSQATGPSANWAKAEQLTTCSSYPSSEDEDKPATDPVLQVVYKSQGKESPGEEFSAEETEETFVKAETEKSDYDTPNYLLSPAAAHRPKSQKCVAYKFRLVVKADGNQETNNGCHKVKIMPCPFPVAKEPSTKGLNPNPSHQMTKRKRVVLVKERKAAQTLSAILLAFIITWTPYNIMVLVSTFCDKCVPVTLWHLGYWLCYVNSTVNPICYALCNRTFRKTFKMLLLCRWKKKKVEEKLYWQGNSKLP", "test": "Inhibition of human muscarinic M5 receptor at 0.1 to 1 uM", "conditions": "dose 0.1-1 µM"}, "[3]": {"target": "Sigma non-opioid intracellular receptor 1 (Homo sapiens, UniProt Q99720)", "sequence (Q99720 whole entry)": "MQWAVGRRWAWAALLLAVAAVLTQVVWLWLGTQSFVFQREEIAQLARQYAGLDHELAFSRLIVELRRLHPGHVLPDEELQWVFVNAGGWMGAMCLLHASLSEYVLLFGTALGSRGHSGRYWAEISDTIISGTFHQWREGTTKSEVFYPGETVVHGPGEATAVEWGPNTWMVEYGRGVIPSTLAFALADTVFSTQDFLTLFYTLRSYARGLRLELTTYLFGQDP", "test": "Inhibition of sigma 1 receptor (unknown origin) at 0.1 to 1 uM", "conditions": "dose 0.1-1 µM"}, "[4]": {"target": "5-hydroxytryptamine receptor 3A (Homo sapiens, UniProt P46098)", "test": "Inhibition of 5HT3 receptor (unknown origin) at 0.1 to 1 uM", "conditions": "dose 0.1-1 µM"}, "[5]": {"target": "D(1A) dopamine receptor (Homo sapiens, UniProt P21728)", "test": "Inhibition of human dopamine D1 receptor at 0.1 to 1 uM", "conditions": "dose 0.1-1 µM"}, "[6]": {"target": "Beta-2 adrenergic receptor (Homo sapiens, UniProt P07550)", "test": "Inhibition of human adrenergic beta 2 receptor at 0.1 to 1 uM", "conditions": "dose 0.1-1 µM"}, "[7]": {"test": "Oral bioavailability in Beagle dog at 2 mg/kg measured after 24 hrs", "type": "ADME, organism-based, Canis lupus familiaris", "conditions": "in vivo"}, "[8]": {"test": "Clearance in Beagle dog at 1 mg/kg, iv measured after 24 hrs relative to hepatic blood flow", "type": "ADME, organism-based, Canis lupus familiaris", "conditions": "in vivo"}, "[9]": {"target": "5-hydroxytryptamine receptor 1A (Homo sapiens, UniProt P08908)", "sequence (P08908 whole entry)": "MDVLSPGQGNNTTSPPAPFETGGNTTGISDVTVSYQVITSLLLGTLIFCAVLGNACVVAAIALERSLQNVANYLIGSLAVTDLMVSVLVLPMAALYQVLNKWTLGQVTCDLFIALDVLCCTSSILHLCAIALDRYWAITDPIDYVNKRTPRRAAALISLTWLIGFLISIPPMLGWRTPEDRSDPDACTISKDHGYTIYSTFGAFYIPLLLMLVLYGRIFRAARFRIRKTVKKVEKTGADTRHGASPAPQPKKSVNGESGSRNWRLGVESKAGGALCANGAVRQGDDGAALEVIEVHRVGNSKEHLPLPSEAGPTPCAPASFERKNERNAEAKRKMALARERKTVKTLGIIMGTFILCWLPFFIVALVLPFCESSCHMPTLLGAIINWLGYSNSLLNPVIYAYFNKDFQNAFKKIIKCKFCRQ", "test": "Inhibition of human 5HT1A receptor at 0.1 to 1 uM", "conditions": "dose 0.1-1 µM"}, "[10]": {"test": "Oral bioavailability in cynomolgus monkey at 2 mg/kg administered as cassette dose measured after 24 hrs", "type": "ADME, organism-based, Macaca fascicularis", "conditions": "in vivo"}, "[11]": {"test": "AUC in cynomolgus monkey at 2 mg/kg, po or 0.5 mg/kg, iv administered as cassette dose measured after 24 hrs", "type": "ADME, organism-based, Macaca fascicularis", "design": "dose 2 mg/kg, time 24 hrs", "conditions": "in vivo"}, "[12]": {"test": "AUC in Beagle dog at 2 mg/kg, po measured after 24 hrs", "type": "ADME, organism-based, Canis lupus familiaris", "design": "route oral, time 24 hrs, dose 2 mg/kg", "conditions": "in vivo"}, "[13]": {"test": "Volume of distribution at steady state in cynomolgus monkey at 2 mg/kg, po or 0.5 mg/kg, iv administered as cassette dose measured after 24 hrs", "type": "ADME, organism-based, Macaca fascicularis", "conditions": "in vivo, read-out: Vdss"}, "[14]": {"target": "5-hydroxytryptamine receptor 5A (Homo sapiens, UniProt P47898)", "sequence (P47898 whole entry)": "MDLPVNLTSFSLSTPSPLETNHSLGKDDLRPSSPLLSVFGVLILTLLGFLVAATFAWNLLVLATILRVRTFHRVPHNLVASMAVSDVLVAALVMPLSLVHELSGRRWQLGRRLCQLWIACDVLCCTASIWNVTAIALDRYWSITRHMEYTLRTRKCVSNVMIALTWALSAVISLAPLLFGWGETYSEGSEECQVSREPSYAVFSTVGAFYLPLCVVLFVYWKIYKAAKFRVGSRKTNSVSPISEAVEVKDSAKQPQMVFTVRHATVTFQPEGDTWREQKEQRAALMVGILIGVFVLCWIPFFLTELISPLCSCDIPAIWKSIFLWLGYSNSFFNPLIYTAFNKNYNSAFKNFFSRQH", "test": "Inhibition of human 5HT5A receptor at 0.1 to 1 uM", "conditions": "dose 0.1-1 µM"}, "[15]": {"test": "AUC in Sprague-Dawley rat at 2 mg/kg, po or 1 mg/kg, iv administered as cassette dose measured after 24 hrs", "type": "ADME, organism-based", "design": "time 24 hrs, dose 2 mg/kg", "conditions": "in vivo"}, "[16]": {"target": "Endothelin-1 receptor (Homo sapiens, UniProt P25101)", "sequence (P25101 whole entry)": "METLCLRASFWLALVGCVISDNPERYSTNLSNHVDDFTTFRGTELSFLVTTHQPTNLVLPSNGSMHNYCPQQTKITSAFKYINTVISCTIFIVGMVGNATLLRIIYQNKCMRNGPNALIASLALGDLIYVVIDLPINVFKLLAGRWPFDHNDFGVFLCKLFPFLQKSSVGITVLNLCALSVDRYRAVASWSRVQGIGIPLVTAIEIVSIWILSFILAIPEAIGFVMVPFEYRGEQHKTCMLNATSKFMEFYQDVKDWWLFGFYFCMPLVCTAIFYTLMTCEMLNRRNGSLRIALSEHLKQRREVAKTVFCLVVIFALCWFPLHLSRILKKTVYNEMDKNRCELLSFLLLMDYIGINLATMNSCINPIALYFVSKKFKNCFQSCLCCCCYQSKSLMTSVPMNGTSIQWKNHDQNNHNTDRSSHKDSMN", "test": "Inhibition of human ETA receptor at 0.1 to 1 uM", "conditions": "dose 0.1-1 µM"}, "[17]": {"target": "CYP2C9 (Homo sapiens, UniProt P11712)", "test": "Inhibition of CYP2C9 in human liver microsomes using diclofenac as substrate substrate in presence of NADPH by LC-MS/MS analysis", "type": "ADME", "conditions": "human, liver microsomes, probe diclofenac"}, "[18]": {"target": "Alpha-2C adrenergic receptor (Homo sapiens, UniProt P18825)", "sequence (P18825 whole entry)": "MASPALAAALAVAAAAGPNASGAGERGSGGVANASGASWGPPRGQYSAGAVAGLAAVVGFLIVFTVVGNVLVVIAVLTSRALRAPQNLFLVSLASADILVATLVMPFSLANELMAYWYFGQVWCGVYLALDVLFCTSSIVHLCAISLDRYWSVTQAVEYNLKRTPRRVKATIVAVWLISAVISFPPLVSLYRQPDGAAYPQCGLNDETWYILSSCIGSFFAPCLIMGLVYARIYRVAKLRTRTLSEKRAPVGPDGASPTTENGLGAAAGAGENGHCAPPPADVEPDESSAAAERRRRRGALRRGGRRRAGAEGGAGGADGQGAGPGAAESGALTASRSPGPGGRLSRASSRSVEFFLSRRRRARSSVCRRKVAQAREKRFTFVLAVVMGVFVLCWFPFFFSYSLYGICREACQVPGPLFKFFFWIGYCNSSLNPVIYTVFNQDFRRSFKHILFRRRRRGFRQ", "test": "Inhibition of human adrenergic alpha 2C receptor at 0.1 to 1 uM", "conditions": "dose 0.1-1 µM"}, "[19]": {"target": "5-hydroxytryptamine receptor 7 (Homo sapiens, UniProt P34969)", "test": "Inhibition of human 5HT7 receptor at 0.1 to 1 uM", "conditions": "dose 0.1-1 µM"}, "[20]": {"target": "CYP1A2 (Homo sapiens, UniProt P05177)", "test": "Inhibition of CYP1A2 in human liver microsomes using 7-ethoxyresorufin as substrate substrate in presence of NADPH by LC-MS/MS analysis", "type": "ADME", "conditions": "human, liver microsomes, probe 7-ethoxyresorufin"}, "[21]": {"test": "Volume of distribution in Beagle dog at 1 mg/kg, iv measured after 24 hrs", "type": "ADME, organism-based, Canis lupus familiaris", "conditions": "in vivo, read-out: Vdss"}, "[22]": {"test": "Oral bioavailability in Sprague-Dawley rat at 2 mg/kg administered as cassette dose measured after 24 hrs", "type": "ADME, organism-based", "conditions": "in vivo"}, "[23]": {"test": "Inhibition of calcium activated potassium channel (unknown origin) at 0.1 to 1 uM", "conditions": "human, dose 0.1-1 µM"}, "[24]": {"target": "Protein kinase C alpha type (Homo sapiens, UniProt P17252)", "test": "Inhibition of human PKCa at 0.1 to 1 uM", "conditions": "dose 0.1-1 µM"}, "[25]": {"target": "CYP2C19 (Homo sapiens, UniProt P33261)", "test": "Inhibition of CYP2C19 in human liver microsomes using s-mephenytoin as substrate substrate in presence of NADPH by LC-MS/MS analysis", "type": "ADME", "conditions": "human, liver microsomes, probe s-mephenytoin"}, "[26]": {"target": "Alpha-1A adrenergic receptor (Homo sapiens, UniProt P35348)", "sequence (P35348 whole entry)": "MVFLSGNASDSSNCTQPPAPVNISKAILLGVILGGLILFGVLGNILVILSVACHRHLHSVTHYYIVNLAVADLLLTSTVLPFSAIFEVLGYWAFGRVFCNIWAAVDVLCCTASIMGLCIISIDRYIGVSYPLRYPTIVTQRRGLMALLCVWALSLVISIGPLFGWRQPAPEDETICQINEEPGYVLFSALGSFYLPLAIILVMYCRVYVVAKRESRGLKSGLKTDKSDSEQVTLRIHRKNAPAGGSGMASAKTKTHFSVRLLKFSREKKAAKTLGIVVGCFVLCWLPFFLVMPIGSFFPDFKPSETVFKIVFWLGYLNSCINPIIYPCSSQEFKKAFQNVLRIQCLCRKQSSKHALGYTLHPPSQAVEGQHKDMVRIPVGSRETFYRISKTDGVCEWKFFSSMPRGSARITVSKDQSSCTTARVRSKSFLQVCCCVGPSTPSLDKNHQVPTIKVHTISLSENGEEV", "test": "Inhibition of adrenergic alpha 1A receptor (unknown origin) at 0.1 to 1 uM", "conditions": "dose 0.1-1 µM"}, "[27]": {"target": "Sodium-dependent dopamine transporter (Homo sapiens, UniProt Q01959)", "test": "Inhibition of dopamine transporter (unknown origin) at 0.1 to 1 uM", "type": "ADME", "conditions": "dose 0.1-1 µM"}, "[28]": {"tested_on": "Glutamate [NMDA] receptor", "test": "Inhibition of Glutamate receptor (unknown origin) at 0.1 to 1 uM", "type": "protein-complex assay", "conditions": "human, dose 0.1-1 µM"}, "[29]": {"target": "Thromboxane A2 receptor (Homo sapiens, UniProt P21731)", "test": "Inhibition of human thromboxane A2 at 0.1 to 1 uM", "conditions": "dose 0.1-1 µM"}, "[30]": {"tested_on": "Glutamate [NMDA] receptor", "test": "Inhibition of NMDA receptor (unknown origin) at 0.1 to 1 uM", "type": "protein-complex assay", "conditions": "human, dose 0.1-1 µM"}, "[31]": {"target": "Alpha-2A adrenergic receptor (Homo sapiens, UniProt P08913)", "test": "Inhibition of adrenergic alpha 2A receptor (unknown origin) at 0.1 to 1 uM", "conditions": "dose 0.1-1 µM"}, "[32]": {"target": "Beta-1 adrenergic receptor (Homo sapiens, UniProt P08588)", "test": "Inhibition of human adrenergic beta 1 receptor at 0.1 to 1 uM", "conditions": "dose 0.1-1 µM"}, "[33]": {"target": "Delta-type opioid receptor (Homo sapiens, UniProt P41143)", "sequence (P41143 whole entry)": "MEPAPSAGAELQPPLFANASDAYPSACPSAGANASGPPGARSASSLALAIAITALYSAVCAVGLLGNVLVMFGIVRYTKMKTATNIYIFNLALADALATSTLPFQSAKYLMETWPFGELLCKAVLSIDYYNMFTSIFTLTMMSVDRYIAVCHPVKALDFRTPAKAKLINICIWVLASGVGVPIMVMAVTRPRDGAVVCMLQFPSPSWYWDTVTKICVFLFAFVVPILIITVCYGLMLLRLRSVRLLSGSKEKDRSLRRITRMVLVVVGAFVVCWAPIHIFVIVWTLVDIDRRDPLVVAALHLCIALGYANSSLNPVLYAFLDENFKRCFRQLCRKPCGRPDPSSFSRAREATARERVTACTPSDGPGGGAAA", "test": "Inhibition of human delta opioid receptor at 0.1 to 1 uM", "conditions": "dose 0.1-1 µM"}, "[34]": {"target": "5-hydroxytryptamine receptor 1D (Homo sapiens, UniProt P28221)", "test": "Inhibition of 5HT1D receptor (unknown origin) at 0.1 to 1 uM", "conditions": "dose 0.1-1 µM"}, "[35]": {"target": "Adenosine receptor A2a (Homo sapiens, UniProt P29274)", "test": "Inhibition of human adenosine A2A receptor at 0.1 to 1 uM", "conditions": "dose 0.1-1 µM"}, "[36]": {"tested_on": "Neuronal acetylcholine receptor", "test": "Inhibition of neuronal nicotinic receptor (unknown origin) at 0.1 to 1 uM", "type": "protein-complex assay", "conditions": "human, dose 0.1-1 µM"}, "[37]": {"target": "Histamine H3 receptor (Homo sapiens, UniProt Q9Y5N1)", "sequence (Q9Y5N1 whole entry)": "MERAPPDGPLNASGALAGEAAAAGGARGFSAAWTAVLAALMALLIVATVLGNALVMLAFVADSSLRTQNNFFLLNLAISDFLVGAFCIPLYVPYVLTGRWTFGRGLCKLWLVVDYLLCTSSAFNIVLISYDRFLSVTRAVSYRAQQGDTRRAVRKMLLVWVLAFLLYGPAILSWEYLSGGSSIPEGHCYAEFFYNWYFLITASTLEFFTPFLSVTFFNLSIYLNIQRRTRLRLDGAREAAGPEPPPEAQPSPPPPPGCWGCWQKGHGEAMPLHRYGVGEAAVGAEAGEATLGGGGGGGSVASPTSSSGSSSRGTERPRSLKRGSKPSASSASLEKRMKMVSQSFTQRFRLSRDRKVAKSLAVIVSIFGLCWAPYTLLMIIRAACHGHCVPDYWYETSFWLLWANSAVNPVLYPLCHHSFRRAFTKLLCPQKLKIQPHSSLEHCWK", "test": "Inhibition of histamine H3 receptor (unknown origin) at 0.1 to 1 uM", "conditions": "dose 0.1-1 µM"}, "[38]": {"target": "Muscarinic acetylcholine receptor M3 (Homo sapiens, UniProt P20309)", "test": "Inhibition of human muscarinic M3 receptor at 0.1 to 1 uM", "conditions": "dose 0.1-1 µM"}, "[39]": {"target": "GABA-B receptor (Homo sapiens, UniProt Q9UBS5+O75899)", "test": "Inhibition of GABA-B receptor (unknown origin) at 0.1 to 1 uM", "type": "protein-complex assay", "conditions": "dose 0.1-1 µM"}, "[40]": {"test": "Solubility of the compound in FaSSIF by HPLC analysis", "type": "physicochemical"}, "[41]": {"target": "hERG (KCNH2) (Homo sapiens, UniProt Q12809)", "test": "Inhibition of human ERG at 5 uM by patch clamp method relative to control"}, "[42]": {"target": "Voltage-gated L-type calcium channel (Homo sapiens, UniProt Q13936+Q13698+Q01668+O60840)", "test": "Inhibition of calcium channel, Type L (unknown origin) at 0.1 to 1 uM", "type": "protein assay", "conditions": "dose 0.1-1 µM"}, "[43]": {"target": "Histamine H1 receptor (Homo sapiens, UniProt P35367)", "sequence (P35367 whole entry)": "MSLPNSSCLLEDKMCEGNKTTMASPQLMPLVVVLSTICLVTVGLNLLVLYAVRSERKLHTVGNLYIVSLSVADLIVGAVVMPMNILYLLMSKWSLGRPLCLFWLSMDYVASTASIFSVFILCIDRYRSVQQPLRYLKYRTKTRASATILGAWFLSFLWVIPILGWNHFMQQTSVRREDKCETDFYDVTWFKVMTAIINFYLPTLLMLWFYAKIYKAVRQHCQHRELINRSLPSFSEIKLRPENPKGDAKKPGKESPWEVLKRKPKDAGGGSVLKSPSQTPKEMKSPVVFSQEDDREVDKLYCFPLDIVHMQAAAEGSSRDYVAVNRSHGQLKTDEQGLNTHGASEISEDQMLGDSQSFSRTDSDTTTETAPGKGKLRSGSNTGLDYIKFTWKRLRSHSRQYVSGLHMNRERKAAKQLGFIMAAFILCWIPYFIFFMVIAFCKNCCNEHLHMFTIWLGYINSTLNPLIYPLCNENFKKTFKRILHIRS", "test": "Inhibition of histamine H1 receptor (unknown origin) at 0.1 to 1 uM", "conditions": "dose 0.1-1 µM"}}, "data": [{"smiles": "CCN1C(=O)N(c2c(F)c(OC)cc(OC)c2F)Cc2cnc3[nH]c(CN4CCOCC4)cc3c21", "note": "[PEMIGATINIB]", "values": [{"measurement": "inhibition (INH)", "setting": "[1]", "result": "Not Active"}, {"measurement": "inhibition (INH)", "setting": "[2]", "result": "Not Active"}, {"measurement": "inhibition (INH)", "setting": "[3]", "result": "Not Active"}, {"measurement": "inhibition (INH)", "setting": "[4]", "result": "Not Active"}, {"measurement": "inhibition (INH)", "setting": "[5]", "result": "Not Active"}, {"measurement": "inhibition (INH)", "setting": "[6]", "result": "Not Active"}, {"measurement": "bioavailability", "setting": "[7]", "result": 98, "unit": "%"}, {"measurement": "CL", "setting": "[8]", "result": 10, "unit": "%"}, {"measurement": "inhibition (INH)", "setting": "[9]", "result": "Not Active"}, {"measurement": "bioavailability", "setting": "[10]", "result": 29, "unit": "%"}, {"measurement": "AUC at 24 h", "setting": "[11]", "result": 6.19, "unit": "µM·h"}, {"measurement": "AUC at 24 h", "setting": "[12]", "result": 22.1, "unit": "µM·h"}, {"measurement": "Vd", "setting": "[13]", "result": 0.58, "unit": "L/kg"}, {"measurement": "inhibition (INH)", "setting": "[14]", "result": "Not Active"}, {"measurement": "AUC at 24 h", "setting": "[15]", "result": 7.67, "unit": "µM·h"}, {"measurement": "inhibition (INH)", "setting": "[16]", "result": "Not Active"}, {"measurement": "IC50", "setting": "[17]", "result": "> 25", "unit": "µM"}, {"measurement": "inhibition (INH)", "setting": "[18]", "result": "Not Active"}, {"measurement": "inhibition (INH)", "setting": "[19]", "result": "Not Active"}, {"measurement": "IC50", "setting": "[20]", "result": "> 25", "unit": "µM"}, {"measurement": "Vd", "setting": "[21]", "result": 3.49, "unit": "L/kg"}, {"measurement": "bioavailability", "setting": "[22]", "result": "> 100", "unit": "%"}, {"measurement": "inhibition (INH)", "setting": "[23]", "result": "Not Active"}, {"measurement": "inhibition (INH)", "setting": "[24]", "result": "Not Active"}, {"measurement": "IC50", "setting": "[25]", "result": "> 25", "unit": "µM"}, {"measurement": "inhibition (INH)", "setting": "[26]", "result": "Not Active"}, {"measurement": "inhibition (INH)", "setting": "[27]", "result": "Not Active"}, {"measurement": "inhibition (INH)", "setting": "[28]", "result": "Not Active"}, {"measurement": "inhibition (INH)", "setting": "[29]", "result": "Not Active"}, {"measurement": "inhibition (INH)", "setting": "[30]", "result": "Not Active"}, {"measurement": "inhibition (INH)", "setting": "[31]", "result": "Not Active"}, {"measurement": "inhibition (INH)", "setting": "[32]", "result": "Not Active"}, {"measurement": "inhibition (INH)", "setting": "[33]", "result": "Not Active"}, {"measurement": "inhibition (INH)", "setting": "[34]", "result": "Not Active"}, {"measurement": "inhibition (INH)", "setting": "[35]", "result": "Not Active"}, {"measurement": "inhibition (INH)", "setting": "[36]", "result": "Not Active"}, {"measurement": "inhibition (INH)", "setting": "[37]", "result": "Not Active"}, {"measurement": "inhibition (INH)", "setting": "[38]", "result": "Not Active"}, {"measurement": "inhibition (INH)", "setting": "[39]", "result": "Not Active"}, {"measurement": "solubility", "setting": "[40]", "result": 11, "unit": "µg/mL"}, {"measurement": "inhibition at 5 µM", "setting": "[41]", "result": 9, "unit": "%"}, {"measurement": "inhibition (INH)", "setting": "[42]", "result": "Not Active"}, {"measurement": "inhibition (INH)", "setting": "[43]", "result": "Not Active"}]}]}
